Assay results from patent US20260234107A1, “TRYPTAMINES AND METHODS OF TREATING MOOD DISORDERS” (priority 2022, published 2026).

Key:
5-HT2A = 5-HT2A (Homo sapiens, UniProt P28223); assay: 5-HT2A receptor radioligand binding ([3H]ketanserin)
Method: The binding affinities of disclosed compounds at the ketanserin binding site of the 5-HT2A receptor were determined in radioligand binding experiments.
Method. Affinity of the test compounds for the 5-HT2A receptor was determined in radioligand binding experiments with [^3H]ketanserin by WuXi AppTec (Hong Kong) Limited, using methods adapted from the literature and under conditions described in Table 4.

rat synaptosomes = assay: Serotonin (5-HT) release from rat synaptosomes; format: biochemical, Male Sprague-Dawley rats; details: for EC50: rat synaptosomes preloaded with [3H]5-HT; for % Release @ Max Dose (10 μM) / 5-HT release potency/efficacy compared with analog (in words): rat synaptosomes
Method: Disclosed compounds were assessed for their ability to release serotonin (5-HT) from […] (Table 9). Potency and efficacy for 5-HT release varied substantially depending on the specific compound. […] However, there was also substantial variability among 4-hydroxy compounds.
Synaptosome 5-HT Release Assay. Synaptosome release assays were conducted according to modifications of previously described procedures (Partilla et al. (2016). Interrogating the Activity of Ligands at Monoamine Transporters in Rat Brain Synaptosomes. In Neurotransmitter Transporters (pp. 41-52). Springer.). Briefly, synaptosomes were prepared from rat brains. Male Sprague-Dawley rats were rendered unconscious with CO2 and their brains were immediately removed. The cerebella were discarded and the whole brains (minus striatum) were placed in ice-cold 0.32 M sucrose (10 mL per brain) and gently homogenized by hand. The homogenate of each brain was centrifuged at 1,000×g at 4° C. for 10 mins and the resulting supernatant was diluted with ice-cold 0.32 M sucrose to a total volume of 10 mL to provide the synaptosome solution. Synaptosomes were then preloaded with 5 nM [^3H]5-HT in the presence of selective uptake inhibitors of DAT (50 nM GBR12935), NET (100 nM nomifensine), and VMAT2 (1 μM reserpine) in Krebs phosphate buffer (KPB). The incubations were allowed to reach equilibrium for 2 h at 25° C. For the release reactions, 425 μL of preloaded synaptosomes were added to test tubes containing 75 μL of test drugs diluted in KPB containing 1 mg/mL BSA. After 10 mins, the release reaction was stopped using a cell harvester by rapid vacuum filtration over GF/B filter paper presoaked in wash buffer (10 mM Tris-HCl, pH 7.4, 150 mM NaCl) and the filters were washed with additional wash buffer. Filters were dried for 1 h at 60° C. and retained radioactivity was quantified using a MicroBeta 2 liquid scintillation counter. The amount of retained radioactivity was inversely proportional to the extent of release.

[1] = Plasma pharmacokinetics in mice after subcutaneous administration; format: in vivo, male C57BL/6 mice; details: plasma, male C57BL/6 mice, SC 10 mg/kg
Text: Animals. […] Four mice were housed in each cage. […] All animals were provided laboratory rodent diet. […] Animals were randomly assigned to treatment groups.

[2] = Stability in rat brain homogenate; format: in vitro ADME, male Sprague Dawley rats; details: rat brain homogenate, 1 μM, 37° C.; for half-life at 1 µM: male, Sprague Dawley

Sequence of 5-HT2A (P28223 whole entry): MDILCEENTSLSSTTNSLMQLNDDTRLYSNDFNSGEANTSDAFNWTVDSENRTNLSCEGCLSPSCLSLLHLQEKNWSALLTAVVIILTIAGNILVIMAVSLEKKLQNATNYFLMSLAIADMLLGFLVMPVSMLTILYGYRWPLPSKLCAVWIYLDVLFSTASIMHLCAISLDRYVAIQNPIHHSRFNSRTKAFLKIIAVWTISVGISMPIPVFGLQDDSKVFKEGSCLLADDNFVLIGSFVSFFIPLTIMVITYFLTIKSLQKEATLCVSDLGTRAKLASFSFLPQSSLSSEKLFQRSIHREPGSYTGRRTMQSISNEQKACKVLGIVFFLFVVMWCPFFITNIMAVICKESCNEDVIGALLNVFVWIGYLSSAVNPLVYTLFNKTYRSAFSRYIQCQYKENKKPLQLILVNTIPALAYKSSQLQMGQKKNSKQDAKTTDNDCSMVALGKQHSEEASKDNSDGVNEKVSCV

| SMILES | Ki (5-HT2A) | EC50 (rat synaptosomes) | % Release @ Max Dose (10 μM) (rat synaptosomes) | AUC(0-t) ([1]; mouse) | Cmax ([1]; mouse) | Tmax [1] | t1/2 [1] | t1/2 [2] | % Compound Remaining (after 120 min) [2] | 5-HT release potency/efficacy compared with analog (in words) (rat synaptosomes) | half-life at 1 µM [2] |
| --- | --- | --- | --- | --- | --- | --- | --- | --- | --- | --- | --- |
| CN(C)CCc1c[nH]c2ccc(F)cc12 [Compound 5-F-DMT, reference compound] | 181 nM | 40.7 nM | 81.44% | 247 ng·h/mL | 363 ng/mL | 15 min | 16.2 min | 2.7 min | 0.0% | – | – |
| CC(C)NCCc1c[nH]c2ccc(F)c(O)c12 [Compound 35, 5-fluoro-3-(2-(isopropylamino)ethyl)-1H-indol-4-ol] | 446 nM | 6940 nM | 53.2% | – | – | – | – | – | 16.4% | significantly more potent and efficacious than their non-fluorinated analogs | 45.6 min |
| CCNCCc1c[nH]c2ccc(F)c(O)c12 [Compound 28, 3-(2-(ethylamino)ethyl)-5-fluoro-1H-indol-4-ol] | 319 nM | 708 nM | 73.6% | – | – | – | – | – | 0.4% | significantly more potent and efficacious than their non-fluorinated analogs | 15.4 min |
